Several values for one entry are separate records, joined by “and”; a condition that tells them apart may be missing. Equal entries are not always repeated.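 48-hour exposure; five concentrations; linearly interpolated endpoints. Here, GI50 denotes the concentration required for 50% inhibition of growth. Definition used: TGI = concentration required for complete inhibition of growth.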 Some results are limits rather than exact numbers.

Among the test systems are A498 renal; SK-MEL-28 melanoma; MCF7 breast; SK-OV-3 ovarian; KM12 colon; DU-145 prostate; A549 NSCLC; SF-539 CNS; HS 578T breast; NCI-H226 lung.
Holding throughout (assay): DTP human tumour cell line panel, 48 h

One may read the GI50 as the concentration that inhibits growth by half. What is called TGI is the concentration at which net growth stops. Lower therefore signals more potent growth arrest. Consider `C=C(C)[C@@H]1CC[C@]2(CN)CC[C@]3(C)[C@H](CC[C@@H]4[C@@]5(C)CCC(N)[C@@](C)(CO)[C@@H]5CC[C@]43C)[C@@H]12` (stereo partly drawn), for which the GI50 in the assay on A498 renal was 1.44 µM; with SK-MEL-28 melanoma, 1.9 µM; in the assay with MCF7 breast it was 1.53 µM; with SK-OV-3 ovarian it was 1.8 µM; in the assay with KM12 colon, 1.79 µM; in the assay with DU-145 prostate, 1.66 µM. Moreover, the GI50 in the assay on A549 NSCLC is 1.73 µM; in the assay with SF-539 CNS it was 1.79 µM; in the assay with HS 578T breast, 1.65 µM; with NCI-H226 lung, 1.94 µM. For the same compound, the TGI in the assay on A498 renal amounted to 2.79 µM; in the assay on SK-MEL-28 melanoma, 3.37 µM; with MCF7 breast, 3.2 µM; in the assay on SK-OV-3 ovarian, 3.2 µM; in the assay on KM12 colon it was 3.37 µM; in the assay on DU-145 prostate, 3.17 µM. Besides, the TGI in the assay on A549 NSCLC worked out at 3.27 µM; with SF-539 CNS, 3.26 µM; with HS 578T breast it was 3.65 µM; with NCI-H226 lung, 4.09 µM.

Take `C[C@@H]1OC(=O)NN=C1c1ccc(-c2ccc(F)cc2)c(C(F)(F)F)c1`: the GI50 is 15.5 µM in the assay on A498 renal; 10.5 µM with SK-MEL-28 melanoma; 10.1 µM in the assay on MCF7 breast; 12.6 µM in the assay on SK-OV-3 ovarian; 5.95 µM in the assay on KM12 colon; 1.57 µM in the assay on DU-145 prostate. Further, the results for the GI50 with A549 NSCLC, in the assay on SF-539 CNS and with NCI-H226 lung were 8.21 µM, 11.2 µM and 2.57 µM, respectively. The TGI is 29.5 µM in the assay on A498 renal; 22.6 µM in the assay with SK-MEL-28 melanoma; 25 µM in the assay with MCF7 breast; 27.5 µM with SK-OV-3 ovarian; 19.5 µM with KM12 colon; 20.7 µM with DU-145 prostate. The TGI in the assay on A549 NSCLC came out at 22.8 µM; in the assay on SF-539 CNS it was 24.3 µM; in the assay on HS 578T breast it was 3.37 µM; in the assay on NCI-H226 lung it was 20.6 µM.

For the compound `O=C(Nc1ccc(-n2ccc3c(NC(=O)c4ccccc4)nccc32)cc1)c1ccc(N2CCOCC2)c(C(F)(F)F)c1`, the GI50 with A498 renal was 2.19 µM; in the assay on SK-MEL-28 melanoma, 0.275 µM; in the assay on MCF7 breast, 0.0734 µM; in the assay with SK-OV-3 ovarian it was 0.509 µM; with KM12 colon, 0.0707 µM; with DU-145 prostate, 0.105 µM. In addition, the GI50 in the assay on A549 NSCLC was 0.0488 µM; with SF-539 CNS, 0.0513 µM; with HS 578T breast, 1.81 µM; with NCI-H226 lung it was 3.18 µM. Moreover, the TGI was 26.6 µM in the assay with A498 renal; above 47.4 µM with SK-MEL-28 melanoma; 25 µM with MCF7 breast; 28.2 µM in the assay with SK-OV-3 ovarian; 18 µM with KM12 colon; above 87.6 µM in the assay with DU-145 prostate. In addition, the TGI was 4.15 µM in the assay with A549 NSCLC, 6.79 µM in the assay on SF-539 CNS, above 76.5 µM in the assay with HS 578T breast and 59.4 µM in the assay on NCI-H226 lung.

For `O=C(O)CNC(=O)C1NC(C(F)(F)F)(C(F)(F)F)OC1(C(F)(F)F)C(F)(F)F` (stereo not drawn), the TGI in the assay with A498 renal, with SK-MEL-28 melanoma, in the assay with MCF7 breast, with SK-OV-3 ovarian, with KM12 colon and in the assay on DU-145 prostate was above 100 µM in each case. Also, the TGI with A549 NSCLC, with SF-539 CNS, in the assay on HS 578T breast and in the assay with NCI-H226 lung was above 100 µM in each case.

As for `CC1(C)OC2COC(c3[nH]nc4c(=O)[nH]c(=O)[nH]c34)C2O1` (stereo not drawn), the TGI in the assay on A498 renal, with SK-MEL-28 melanoma, in the assay with MCF7 breast, with SK-OV-3 ovarian, in the assay on KM12 colon and with DU-145 prostate was above 100 µM in each case. Also, the TGI in the assay on A549 NSCLC, in the assay with SF-539 CNS, in the assay on HS 578T breast and in the assay on NCI-H226 lung was above 100 µM throughout.

Take `CN[C@H]1CC[C@]23C[C@]24CC[C@]2(C)[C@@H]([C@H](C)N(C)C)CC[C@@]2(C)[C@@H]4CC[C@H]3C1(C)C`: the TGI in the assay on A498 renal is 35.4 µM; in the assay with SK-MEL-28 melanoma, 25.8 µM; in the assay with MCF7 breast, 36.2 µM; with SK-OV-3 ovarian, 38.2 µM; with KM12 colon it was 31.8 µM; in the assay with DU-145 prostate, 28.4 µM. Moreover, the TGI in the assay on A549 NSCLC was 39.2 µM; with SF-539 CNS it was 26.7 µM; in the assay with HS 578T breast it was 48 µM; in the assay with NCI-H226 lung, 34.9 µM.

For the compound `CCN(CC)CCC(=O)N1C/C(=C/c2ccccc2)C(=O)/C(=C\c2ccccc2)C1`, the TGI in the assay on A498 renal worked out at 11 µM; with SK-MEL-28 melanoma, 4.16 µM; with MCF7 breast it was 1.69 µM; in the assay on SK-OV-3 ovarian, 20.9 µM; with KM12 colon, 2.51 µM; with DU-145 prostate it was 12.5 µM. The TGI with A549 NSCLC was found to be 17.1 µM; in the assay on SF-539 CNS it was 10.8 µM; in the assay with HS 578T breast, 2.21 µM; in the assay with NCI-H226 lung it was 13.7 µM.

With `CCN(CC)CCOc1ccc(Cc2ccccc2)cc1`, the GI50 is 19.3 µM in the assay on A498 renal; 38.5 µM with SK-MEL-28 melanoma; 27.6 µM in the assay with MCF7 breast; 44 µM in the assay with SK-OV-3 ovarian; 25.6 µM in the assay with KM12 colon; 32.7 µM with DU-145 prostate. Besides, the GI50 in the assay with A549 NSCLC is 49.8 µM; in the assay with SF-539 CNS, 32.1 µM; in the assay with HS 578T breast it was 13.6 µM; in the assay with NCI-H226 lung it was 69.7 µM. Moreover, the TGI in the assay on A498 renal is 87 µM; with SK-MEL-28 melanoma, above 100 µM; in the assay with MCF7 breast it was above 100 µM; with SK-OV-3 ovarian it was above 100 µM; with KM12 colon it was above 100 µM; in the assay on DU-145 prostate, above 100 µM. For the same compound, the TGI in the assay on A549 NSCLC was above 100 µM; with SF-539 CNS, above 100 µM; in the assay with HS 578T breast it was 52.4 µM; in the assay on NCI-H226 lung, above 100 µM.

For the compound `COc1ccc(-c2cc(-c3ccc(Cl)cc3)nc(SCCCCCCC(=O)NO)n2)cc1`, the GI50 in the assay on A498 renal was 1.28 µM; in the assay on SK-MEL-28 melanoma, 2.43 µM; in the assay on MCF7 breast, 1.73 µM; in the assay with SK-OV-3 ovarian, 1.62 µM; with KM12 colon, 2.2 µM; in the assay with DU-145 prostate, 1.76 µM. Further, the GI50 in the assay with A549 NSCLC was 1.62 µM; in the assay on SF-539 CNS, 1.63 µM; in the assay on HS 578T breast, 1.81 µM; in the assay on NCI-H226 lung it was 1.9 µM. The TGI with A498 renal was 3.8 µM; in the assay on SK-MEL-28 melanoma, 11.7 µM; in the assay on MCF7 breast, above 50 µM; with SK-OV-3 ovarian it was 8.54 µM; in the assay with KM12 colon, 13.1 µM; with DU-145 prostate, 15.4 µM. For the same compound, the TGI is 10.7 µM in the assay on A549 NSCLC, 6.44 µM in the assay on SF-539 CNS, above 50 µM in the assay on HS 578T breast and 23.9 µM in the assay on NCI-H226 lung.

Consider `CC(C)Cc1ccc(C(C)/C=C2\CCC(CN3CCCCC3)C2=O)cc1` (stereo not drawn), for which the TGI worked out at 28.2 µM in the assay with A498 renal; 11 µM in the assay on SK-MEL-28 melanoma; 4.08 µM in the assay with MCF7 breast; 34.9 µM in the assay with SK-OV-3 ovarian; 6.36 µM with KM12 colon; 31 µM in the assay on DU-145 prostate. Moreover, the TGI in the assay on A549 NSCLC was determined as 39.9 µM; in the assay with SF-539 CNS, 11.4 µM; with HS 578T breast, 45.6 µM; in the assay with NCI-H226 lung, 32.2 µM.

Consider `NC(N)=NC(N)=Nc1ccc(S(N)(=O)=O)cc1`, for which the total growth inhibition concentration (TGI) with A498 renal, in the assay with SK-MEL-28 melanoma, in the assay with MCF7 breast, in the assay with SK-OV-3 ovarian, in the assay with KM12 colon and with DU-145 prostate was above 100 µM in each case. Besides, the TGI in the assay with A549 NSCLC, in the assay on SF-539 CNS, in the assay on HS 578T breast and in the assay on NCI-H226 lung was above 100 µM in each case.

For `C[C@H](C(O)CC(=O)C(C)(C)O)[C@H]1CC[C@@]2(C)[C@@H]3CC[C@H]4C(C)(C)[C@@H](OC5OC(COC6OC(CO)C(O)C(O)C6O)C(O)C(O)C5O)CC[C@]4(C)C3=CC[C@]12C` (stereo partly drawn), the TGI in the assay on A498 renal, with SK-MEL-28 melanoma, with MCF7 breast, in the assay on SK-OV-3 ovarian, in the assay on KM12 colon and in the assay with DU-145 prostate was above 100 µM each time. In addition, the TGI in the assay on A549 NSCLC, in the assay with SF-539 CNS, with HS 578T breast and with NCI-H226 lung was above 100 µM throughout.

For `Cc1ccccc1C[P+](c1ccccc1)(c1ccccc1)c1ccccc1`, the GI50 with A498 renal was 1.93 µM; with SK-MEL-28 melanoma, 2.1 µM; with MCF7 breast, 0.649 µM; with SK-OV-3 ovarian it was 1.64 µM; with KM12 colon, 0.804 µM; with DU-145 prostate, 2.18 µM. For the same compound, the GI50 is 3.72 µM with A549 NSCLC, 2.34 µM in the assay on SF-539 CNS, 2.13 µM with HS 578T breast and 3.18 µM in the assay on NCI-H226 lung. Also, the TGI with A498 renal was 12.7 µM; with SK-MEL-28 melanoma, 44 µM; in the assay with MCF7 breast, 39.6 µM; with SK-OV-3 ovarian, 9.27 µM; with KM12 colon, 11 µM; in the assay with DU-145 prostate, above 100 µM. Besides, the TGI with A549 NSCLC is above 100 µM; in the assay on SF-539 CNS, above 100 µM; in the assay on HS 578T breast it was 33.7 µM; in the assay with NCI-H226 lung, above 100 µM.

`CN(C)C1C(=O)C(C(N)=O)=C(O)C2(O)C(=O)C3=C(O)c4c(O)cccc4C(C)(O)C3CC12` (stereo not drawn): the TGI was 95.5 µM and > 100 µM in the assay on A498 renal; above 100 µM in the assay with SK-MEL-28 melanoma; above 100 µM with MCF7 breast; above 100 µM with SK-OV-3 ovarian; above 100 µM with KM12 colon; above 100 µM in the assay on DU-145 prostate. The TGI with A549 NSCLC, with HS 578T breast and in the assay on NCI-H226 lung was above 100 µM throughout.

These data come from PubChem BioAssay (NCI).
